Laboratory results reported in PubChem BioAssay AID2060606 (Molecular Pharmacology Branch, DTP, NCI, 2025).

Test system: 922993-354-T-J3-PDC complex spheroids, viability, % test/control
Assay: Anticancer human tumor 922993-354-T-J3-PDC patient-derived endometrial carcinoma cell line growth inhibition [CLK]
Conditions: for IC50: curve of first compound; for viability, T/C: stronger effect = lower value
Method in brief: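 Patient-derived tumor cells grown as complex spheroids with HUVEC endothelial cells and mesenchymal stem cells, treated with drug combinations. Concentrations descend in half-log steps from near clinical Cmax, or from 10 microM if Cmax unknown.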

[1] = second compound 0.0316 µM, first compound 0.0316 µM
[2] = second compound 0.0316 µM, first compound 0.1 µM
[3] = second compound 0.0316 µM, first compound 0.316 µM
[4] = second compound 0.0316 µM, first compound 1 µM
[5] = second compound 0.0316 µM, first compound 3.16 µM
[6] = second compound 0.0316 µM, first compound 10 µM
[7] = second compound 0.1 µM, first compound 0.0316 µM
[8] = second compound 0.1 µM, first compound 0.1 µM
[9] = second compound 0.1 µM, first compound 0.316 µM
[10] = second compound 0.1 µM, first compound 1 µM
[11] = second compound 0.1 µM, first compound 3.16 µM
[12] = second compound 0.1 µM, first compound 10 µM
[13] = second compound 0.316 µM, first compound 0.0316 µM
[14] = second compound 0.316 µM, first compound 0.1 µM
[15] = second compound 0.316 µM, first compound 0.316 µM
[16] = second compound 0.316 µM, first compound 1 µM
[17] = second compound 0.316 µM, first compound 3.16 µM
[18] = second compound 0.316 µM, first compound 10 µM
[19] = second compound 1 µM, first compound 0.0316 µM
[20] = second compound 1 µM, first compound 0.1 µM
[21] = second compound 1 µM, first compound 0.316 µM
[22] = second compound 1 µM, first compound 1 µM
[23] = second compound 1 µM, first compound 3.16 µM
[24] = second compound 1 µM, first compound 10 µM
[25] = second compound 3.16 µM, first compound 0.0316 µM
[26] = second compound 3.16 µM, first compound 0.1 µM
[27] = second compound 3.16 µM, first compound 0.316 µM
[28] = second compound 3.16 µM, first compound 1 µM
[29] = second compound 3.16 µM, first compound 3.16 µM
[30] = second compound 3.16 µM, first compound 10 µM
[31] = second compound 10 µM, first compound 0.0316 µM
[32] = second compound 10 µM, first compound 0.1 µM
[33] = second compound 10 µM, first compound 0.316 µM
[34] = second compound 10 µM, first compound 1 µM
[35] = second compound 10 µM, first compound 3.16 µM
[36] = second compound 10 µM, first compound 10 µM
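Note: spheroids exposed to the agents for 7 days before readout.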

CC1(C)CCC(CN2CCN(c3ccc(C(=O)NS(=O)(=O)c4ccc(NCC5CCOCC5)c([N+](=O)[O-])c4)c(Oc4cnc5[nH]ccc5c4)c3)CC2)=C(c2ccc(Cl)cc2)C1 + CN1CCN(c2cc(C(=O)Nc3cc4cc(-c5cnn(C)c5)ccc4cn3)ccn2)CC1
IC50 (second compound 0.0316 µM): 6.61 µM | IC50 (second compound 0.1 µM): 5.42 µM | IC50 (second compound 0.316 µM): < 0.0316 µM | IC50 (second compound 1 µM): < 0.0316 µM | IC50 (second compound 3.16 µM): < 0.0316 µM | IC50 (second compound 10 µM): < 0.0316 µM | viability, T/C [1]: 109% | viability, T/C [2]: 109% | viability, T/C [3]: 97% | viability, T/C [4]: 105% | viability, T/C [5]: 112% | viability, T/C [6]: 18.2% | viability, T/C [7]: 97.1% | viability, T/C [8]: 90.4% | viability, T/C [9]: 79.8% | viability, T/C [10]: 97.7% | viability, T/C [11]: 87.1% | viability, T/C [12]: 7.76% | viability, T/C [13]: 40% | viability, T/C [14]: 38% | viability, T/C [15]: 39.8% | viability, T/C [16]: 32.5% | viability, T/C [17]: 29.9% | viability, T/C [18]: 1.44% | viability, T/C [19]: 0.16% | viability, T/C [20]: 0.69% | viability, T/C [21]: 0.19% | viability, T/C [22]: 0.86% | viability, T/C [23]: 1.06% | viability, T/C [24]: 0.1% | viability, T/C [25]: 0.36% | viability, T/C [26]: 0.14% | viability, T/C [27]: 0.14% | viability, T/C [28]: 0.11% | viability, T/C [29]: 2.58% | viability, T/C [30]: 1.27% | viability, T/C [31]: 0.15% | viability, T/C [32]: 0.14% | viability, T/C [33]: 1.91% | viability, T/C [34]: 0.13% | viability, T/C [35]: 0.16% | viability, T/C [36]: 2.48%

CC1COCCN1c1cc(C2(S(C)(=N)=O)CC2)nc(-c2ccnc3[nH]ccc23)n1 (stereo not drawn) + CN1CCN(c2cc(C(=O)Nc3cc4cc(-c5cnn(C)c5)ccc4cn3)ccn2)CC1
IC50 (second compound 0.0316 µM): > 10 µM | IC50 (second compound 0.1 µM): > 10 µM | IC50 (second compound 0.316 µM): < 0.0316 µM | IC50 (second compound 1 µM): < 0.0316 µM | IC50 (second compound 3.16 µM): < 0.0316 µM | IC50 (second compound 10 µM): < 0.0316 µM | viability, T/C [1]: 122% | viability, T/C [2]: 119% | viability, T/C [3]: 119% | viability, T/C [4]: 120% | viability, T/C [5]: 117% | viability, T/C [6]: 76.3% | viability, T/C [7]: 90.6% | viability, T/C [8]: 111% | viability, T/C [9]: 111% | viability, T/C [10]: 94.6% | viability, T/C [11]: 104% | viability, T/C [12]: 60.7% | viability, T/C [13]: 38.1% | viability, T/C [14]: 45.2% | viability, T/C [15]: 35.9% | viability, T/C [16]: 36.2% | viability, T/C [17]: 27.9% | viability, T/C [18]: 13.3% | viability, T/C [19]: 0.12% | viability, T/C [20]: 0.14% | viability, T/C [21]: 1.67% | viability, T/C [22]: 0.14% | viability, T/C [23]: 0.12% | viability, T/C [24]: 0.08% | viability, T/C [25]: 0.13% | viability, T/C [26]: 0.13% | viability, T/C [27]: 0.16% | viability, T/C [28]: 0.94% | viability, T/C [29]: 1.11% | viability, T/C [30]: 0.87% | viability, T/C [31]: 0.78% | viability, T/C [32]: 0.17% | viability, T/C [33]: 1.4% | viability, T/C [34]: 0.2% | viability, T/C [35]: 0.94% | viability, T/C [36]: 1.78%

NC(=O)C(=Cn1cnc(-c2cc(C(F)(F)F)cc(C(F)(F)F)c2)n1)c1cncnc1 + CN1CCN(c2cc(C(=O)Nc3cc4cc(-c5cnn(C)c5)ccc4cn3)ccn2)CC1
IC50 (second compound 0.0316 µM): 0.229 µM | IC50 (second compound 0.1 µM): 0.173 µM | IC50 (second compound 0.316 µM): < 0.00949 µM | IC50 (second compound 1 µM): < 0.00949 µM | IC50 (second compound 3.16 µM): < 0.00949 µM | IC50 (second compound 10 µM): < 0.00949 µM | viability, T/C (second compound 0.0316 µM, first compound 0.00949 µM): 119% | viability, T/C (second compound 0.0316 µM, first compound 0.03 µM): 115% | viability, T/C (second compound 0.0316 µM, first compound 0.0949 µM): 82.1% | viability, T/C (second compound 0.0316 µM, first compound 0.3 µM): 40.1% | viability, T/C (second compound 0.0316 µM, first compound 0.949 µM): 30.6% | viability, T/C (second compound 0.0316 µM, first compound 3 µM): 41.2% | viability, T/C (second compound 0.1 µM, first compound 0.00949 µM): 118% | viability, T/C (second compound 0.1 µM, first compound 0.03 µM): 118% | viability, T/C (second compound 0.1 µM, first compound 0.0949 µM): 80.7% | viability, T/C (second compound 0.1 µM, first compound 0.3 µM): 21.7% | viability, T/C (second compound 0.1 µM, first compound 0.949 µM): 21.5% | viability, T/C (second compound 0.1 µM, first compound 3 µM): 20% | viability, T/C (second compound 0.316 µM, first compound 0.00949 µM): 48.8% | viability, T/C (second compound 0.316 µM, first compound 0.03 µM): 32.3% | viability, T/C (second compound 0.316 µM, first compound 0.0949 µM): 4.78% | viability, T/C (second compound 0.316 µM, first compound 0.3 µM): 1.32% | viability, T/C (second compound 0.316 µM, first compound 0.949 µM): 0.16% | viability, T/C (second compound 0.316 µM, first compound 3 µM): 1.43% | viability, T/C (second compound 1 µM, first compound 0.00949 µM): 0.11% | viability, T/C (second compound 1 µM, first compound 0.03 µM): 0.75% | viability, T/C (second compound 1 µM, first compound 0.0949 µM): 0.12% | viability, T/C (second compound 1 µM, first compound 0.3 µM): 0.07% | viability, T/C (second compound 1 µM, first compound 0.949 µM): 0.71% | viability, T/C (second compound 1 µM, first compound 3 µM): 2.13% | viability, T/C (second compound 3.16 µM, first compound 0.00949 µM): 0.1% | viability, T/C (second compound 3.16 µM, first compound 0.03 µM): 0.13% | viability, T/C (second compound 3.16 µM, first compound 0.0949 µM): 0.17% | viability, T/C (second compound 3.16 µM, first compound 0.3 µM): 1.63% | viability, T/C (second compound 3.16 µM, first compound 0.949 µM): 1.45% | viability, T/C (second compound 3.16 µM, first compound 3 µM): 2.46% | viability, T/C (second compound 10 µM, first compound 0.00949 µM): 0.14% | viability, T/C (second compound 10 µM, first compound 0.03 µM): 0.16% | viability, T/C (second compound 10 µM, first compound 0.0949 µM): 1.88% | viability, T/C (second compound 10 µM, first compound 0.3 µM): 0.19% | viability, T/C (second compound 10 µM, first compound 0.949 µM): 0.8% | viability, T/C (second compound 10 µM, first compound 3 µM): 2.01%

Nc1ccccc1NC(=O)c1ccc(CNC(=O)OCc2cccnc2)cc1 + CN1CCN(c2cc(C(=O)Nc3cc4cc(-c5cnn(C)c5)ccc4cn3)ccn2)CC1
IC50 (second compound 0.0316 µM): > 10 µM | IC50 (second compound 0.1 µM): 4.69 µM | IC50 (second compound 0.316 µM): < 0.0316 µM | IC50 (second compound 1 µM): < 0.0316 µM | IC50 (second compound 3.16 µM): < 0.0316 µM | IC50 (second compound 10 µM): < 0.0316 µM | viability, T/C [1]: 111% | viability, T/C [2]: 114% | viability, T/C [3]: 103% | viability, T/C [4]: 90.3% | viability, T/C [5]: 62% | viability, T/C [6]: 51.9% | viability, T/C [7]: 103% | viability, T/C [8]: 97.2% | viability, T/C [9]: 83.8% | viability, T/C [10]: 60.1% | viability, T/C [11]: 59.6% | viability, T/C [12]: 41.7% | viability, T/C [13]: 39.8% | viability, T/C [14]: 29.3% | viability, T/C [15]: 31.7% | viability, T/C [16]: 33% | viability, T/C [17]: 6.16% | viability, T/C [18]: 1.51% | viability, T/C [19]: 0.15% | viability, T/C [20]: 1.32% | viability, T/C [21]: 0.79% | viability, T/C [22]: 0.09% | viability, T/C [23]: 0.26% | viability, T/C [24]: 1.83% | viability, T/C [25]: 0.61% | viability, T/C [26]: 0.12% | viability, T/C [27]: 1.29% | viability, T/C [28]: 0.65% | viability, T/C [29]: 1.19% | viability, T/C [30]: 1.23% | viability, T/C [31]: 0.11% | viability, T/C [32]: 0.14% | viability, T/C [33]: 2.33% | viability, T/C [34]: 0.14% | viability, T/C [35]: 2.41% | viability, T/C [36]: 2.96%
